{"source": "patent US12239620B2", "about": "“Methods to decrease triglyceride synthesis in the liver” (MediciNova, Inc., priority 2021, dated 2025)", "format_in_all_cases": "cell-based, human", "key": {"ABCG1": {"tested_on": "ABCG1", "assay": "ABCG1 mRNA expression in HepG2 cells by qPCR", "details": "48 hours, 10 μM MN-001, 10 μM ARA", "text": "FIG. 3 depicts the measurement of ABCG1 mRNA expression levels from HepG2 cells after treatment with one or more selected from arachidonic acid, T0901317, and MN-001. Y-axis: relative mRNA expression (arbitrary units) compared to a control.\n(§1) The effect of MN-001 on the mRNA expression of molecules related to TG metabolism: (1) fatty acid translocase/CD36, which is involved in the uptake of ARA into hepatocytes in the liver, and (2) ABCG1, which plays a role in controlling tissue lipid levels by mediating transfer of cellular cholesterol to HDL, were also investigated by measuring extracted RNA from HepG2 cells and using real-time PCR. To this end, RNA was extracted from HepG2 cells (after treatment with one or more selected from 10 μM arachidonic acid (ARA), 1 μM T1317, and 10 μM MN-001 for 48 hours) and converted to cDNA.\nIn addition, the ABCG1 mRNA expression levels were also measured by qPCR (FIG. 3). ABCG1 is known to be highly expressed in lipid-loaded macrophages and mediates cholesterol efflux to HDL. ABCG1 deficiency leads to profound intracellular cholesterol accumulation in macrophages and hepatocytes."}, "HepG2 cells": {"tested_on": "HepG2 cells", "assay": "Intracellular triglyceride level in HepG2 cells after 48 hours incubation", "details": "for increase in TG synthesis compared to vehicle: 10 μM ARA, 1 μM T1317", "description": "FIG. 1 depicts the measurement of intracellular triglyceride level in HepG2 cells after 48 hours incubation with one or more selected from arachidonic acid, T0901317, and MN-001. Y-axis: Δ intracellular triglycerides (μg/mg/protein). HepG2 cells (derived from human hepatocellular carcinoma samples) were incubated with one or more selected from 10 μM arachidonic acid (ARA), 1 μM LXR agonist T0901317 (“T1317”), and 10 μM MN-001 for 48 hours. T1317 stimulates LXR-SREBP-1c ChREPB signal, increases triglyceride (TG) synthesis in liver and exacerbates fatty liver. The intracellular triglyceride level was measured after the treatment (FIG. 1)."}, "CD36": {"tested_on": "CD36", "assay": "CD36 mRNA expression in HepG2 cells by qPCR", "details": "48 hours", "text": "FIG. 2 depicts the measurement of CD36 mRNA expression levels from HepG2 cells after treatment with one or more selected from arachidonic acid, T0901317, and MN-001. Y-axis: relative mRNA expression (arbitrary units) compared to a control.\nas §1\nAfter conversion to cDNA, the CD36 mRNA expression levels were measured by qPCR (FIG. 2). […] Saturated fatty acids (e.g., palmitic acid, stearic acid) and fructose induce adipogenic pathways and promote fat accumulation by increasing CD36 expression and modulating ChREBP, which regulates lipogenesis."}, "[1]": {"details": "10 μM MN-001 added to 10 μM ARA"}}}
{"smiles": "CCCc1c(SCCCOc2ccc(C(C)=O)c(OCCCC(=O)O)c2CCC)ccc(C(C)=O)c1O", "note": "[MN-001]", "values": [{"measurement": "upregulation of ABCG1 expression compared to control", "setting": "ABCG1", "value": 17, "unit": "fold"}, {"measurement": "suppression of the increase in TG synthesis by T1317", "setting": "HepG2 cells; 10 μM MN-001 added to 1 μM T1317", "value": 1.7, "unit": "fold"}, {"measurement": "suppression of the increase in TG synthesis by a combination of T1317 and ARA", "setting": "HepG2 cells; 10 μM MN-001 added to 1 μM T1317 and 10 μM ARA", "value": 3.7, "unit": "fold"}, {"measurement": "suppression of the increase in TG synthesis by ARA", "setting": "HepG2 cells; [1]", "value": 3.7, "unit": "fold"}, {"measurement": "lowering of CD36 expression", "setting": "CD36; 10 μM MN-001, in the absence of ARA", "value": 39, "unit": "%"}, {"measurement": "lowering of CD36 expression", "setting": "CD36; 10 μM MN-001, in the presence of ARA (10 μM)", "value": 43, "unit": "%"}, {"measurement": "suppression of CD36 expression compared to ARA alone", "setting": "CD36; [1]", "value": 0.6, "unit": "fold"}, {"measurement": "downregulation of CD36 expression compared to control", "setting": "CD36; 10 μM MN-001 alone", "value": 0.6, "unit": "fold"}]}
{"smiles": "O=S(=O)(c1ccccc1)N(CC(F)(F)F)c1ccc(C(O)(C(F)(F)F)C(F)(F)F)cc1", "note": "[T1317, reference compound]", "values": [{"measurement": "increase in TG synthesis compared to vehicle", "setting": "HepG2 cells", "value": 3.8, "unit": "fold"}]}
{"smiles": "CCCCC/C=C\\C/C=C\\C/C=C\\C/C=C\\CCCC(=O)O", "note": "[ARA, arachidonic acid, reference compound]", "values": [{"measurement": "increase in TG synthesis compared to vehicle", "setting": "HepG2 cells", "value": 15.3, "unit": "fold"}, {"measurement": "increase of CD36 expression compared to control", "setting": "CD36; 10 μM ARA", "value": 1.8, "unit": "fold"}]}
